In patent US20250064941A1, “SIGLEC LIGANDS, CONJUGATES, AND METHODS OF USE THEREOF” (Osprey Biopharmaceuticals, Inc., priority 2023, published 2025):
pKd: −log10 of the molar value.

How the values were obtained:
[1] = biological target: T1, human Siglec-2/CD22 protein (Homo sapiens, UniProt P20273); experiment: SPR binding affinity to human CD22; details: steady-state analysis
T1 construct: purchased Acro Biosystems SI2-H82E3
T1 sequence (P20273 20-847): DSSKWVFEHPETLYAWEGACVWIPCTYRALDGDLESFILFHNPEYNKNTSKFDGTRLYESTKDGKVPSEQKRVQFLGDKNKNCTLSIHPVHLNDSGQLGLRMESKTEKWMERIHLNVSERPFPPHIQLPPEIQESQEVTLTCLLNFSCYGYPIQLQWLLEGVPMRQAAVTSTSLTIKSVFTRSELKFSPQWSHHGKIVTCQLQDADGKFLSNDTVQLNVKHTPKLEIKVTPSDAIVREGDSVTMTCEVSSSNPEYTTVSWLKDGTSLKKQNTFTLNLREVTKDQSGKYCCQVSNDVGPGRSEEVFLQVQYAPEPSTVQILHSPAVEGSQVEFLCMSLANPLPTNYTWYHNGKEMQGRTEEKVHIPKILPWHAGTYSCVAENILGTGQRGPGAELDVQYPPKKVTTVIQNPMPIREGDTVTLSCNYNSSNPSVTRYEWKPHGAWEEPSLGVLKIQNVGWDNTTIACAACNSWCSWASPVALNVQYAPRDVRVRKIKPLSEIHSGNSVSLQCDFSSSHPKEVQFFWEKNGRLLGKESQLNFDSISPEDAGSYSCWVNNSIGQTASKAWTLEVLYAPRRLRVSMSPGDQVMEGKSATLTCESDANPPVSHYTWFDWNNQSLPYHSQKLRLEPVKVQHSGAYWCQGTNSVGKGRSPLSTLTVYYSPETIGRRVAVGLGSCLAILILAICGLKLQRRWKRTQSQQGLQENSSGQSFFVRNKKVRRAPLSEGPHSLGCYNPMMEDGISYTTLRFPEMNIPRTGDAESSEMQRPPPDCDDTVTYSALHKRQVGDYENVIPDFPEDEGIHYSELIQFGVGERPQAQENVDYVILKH
Summary of the method: (§1)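 Using a Biacore 8K, compounds were tested against biotinylated CD22 captured after sialidase treatment. The running buffer held 1% DMSO, corrected with a 0.5–2% DMSO series. Affinity was derived by steady-state analysis.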

cynomolgus Siglec-2/CD22 = cynomolgus Siglec-2/CD22 (Macaca fascicularis, UniProt A0A2K5WCZ6); experiment: biochemical; format: binding; details: SPR, steady-state analysis; read-out: Affinity cyno CD22
Summary of the method: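 Compound binding measured by steady-state SPR analysis, 120 s dissociation, in HEPES-NaCl-Tween buffer pH 7.5 containing 1% DMSO, DMSO solvent-corrected. Surface: cyno CD22, sialic acids first stripped by SialoExo for 4 h at 37° C., then amine-coupled onto CM5.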

[2] = biological target: T2, mouse Siglec-2-Fc-Avi (CD22) (Mus musculus, UniProt P35329); experiment: SPR binding affinity to mouse CD22; details: steady-state analysis
T2 construct: made in house
T2 sequence (P35329 22-708 limits assumed): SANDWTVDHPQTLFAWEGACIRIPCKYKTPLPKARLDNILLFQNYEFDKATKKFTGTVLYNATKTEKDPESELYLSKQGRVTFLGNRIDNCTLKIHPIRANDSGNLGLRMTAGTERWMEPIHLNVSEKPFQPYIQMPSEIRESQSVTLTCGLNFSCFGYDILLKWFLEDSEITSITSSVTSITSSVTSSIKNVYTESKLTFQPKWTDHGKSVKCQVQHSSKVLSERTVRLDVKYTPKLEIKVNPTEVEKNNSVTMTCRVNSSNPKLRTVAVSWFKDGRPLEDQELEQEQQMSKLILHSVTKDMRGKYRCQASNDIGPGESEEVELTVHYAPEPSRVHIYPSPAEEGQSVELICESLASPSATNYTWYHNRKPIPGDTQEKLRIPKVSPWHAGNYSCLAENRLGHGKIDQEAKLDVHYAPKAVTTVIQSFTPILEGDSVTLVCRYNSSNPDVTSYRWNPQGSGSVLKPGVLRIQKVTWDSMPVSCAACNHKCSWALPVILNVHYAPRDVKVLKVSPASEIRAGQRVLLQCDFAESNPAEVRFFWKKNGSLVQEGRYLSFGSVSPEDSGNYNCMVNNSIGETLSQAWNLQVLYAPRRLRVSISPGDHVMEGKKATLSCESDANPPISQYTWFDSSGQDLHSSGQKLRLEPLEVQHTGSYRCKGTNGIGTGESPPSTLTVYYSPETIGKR
Summary of the method: as §1

cynomolgus Siglec-2/CD22, sequence (A0A2K5WCZ6 entry or part of it): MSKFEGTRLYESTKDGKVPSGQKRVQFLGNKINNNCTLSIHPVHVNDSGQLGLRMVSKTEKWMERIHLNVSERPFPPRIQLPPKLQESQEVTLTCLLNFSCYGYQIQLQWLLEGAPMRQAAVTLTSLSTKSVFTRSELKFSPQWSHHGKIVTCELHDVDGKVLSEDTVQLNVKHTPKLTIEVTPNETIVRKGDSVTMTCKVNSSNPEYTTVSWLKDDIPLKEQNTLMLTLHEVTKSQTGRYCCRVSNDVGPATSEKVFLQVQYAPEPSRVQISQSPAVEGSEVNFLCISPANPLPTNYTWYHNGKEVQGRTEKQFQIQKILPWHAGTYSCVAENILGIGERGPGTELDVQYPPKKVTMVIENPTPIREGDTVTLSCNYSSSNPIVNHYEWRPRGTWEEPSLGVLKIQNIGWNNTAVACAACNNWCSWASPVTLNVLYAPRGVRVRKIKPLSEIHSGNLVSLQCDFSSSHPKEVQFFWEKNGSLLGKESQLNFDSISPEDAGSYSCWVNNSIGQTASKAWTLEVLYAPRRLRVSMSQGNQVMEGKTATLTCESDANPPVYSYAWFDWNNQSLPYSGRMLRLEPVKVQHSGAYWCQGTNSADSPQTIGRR

Row | pKd [1] | pKd (cynomolgus Siglec-2/CD22) | pKd [2] | SMILES
1 | 5.00 to 6.00 | 5.00 to 6.00 | 5.00 to 6.00 | C#CCOCCOCCNc1c(NCCCCCCO[C@]2(C(=O)O)C[C@H](O)[C@@H](NC(=O)CO)[C@H]([C@H](O)[C@H](O)CNC(=O)C(F)(F)c3ccccc3)O2)c(=O)c1=O [Compound 41, (2R,4S,5R,6R)-6-((1R,2R)-3-(2,2-difluoro-2-phenylacetamido)-1,2-dihydroxypropyl)-2-((6-((3,4-dioxo-2-((2-(2-(prop-2-yn-1-yloxy)ethoxy)ethyl)amino)cyclobut-1-en-1-yl)amino)hexyl)oxy)-4-hydroxy-5-(2-hydroxyacetamido) tetrahydro-2H-pyran-2-carboxylic acid]
2 | 5.00 to 6.00 | 5.00 to 6.00 | 5.00 to 6.00 | C#CCOCCOCCNc1c(NCCCCCCO[C@]2(C(=O)O)C[C@H](O)[C@@H](NC(=O)CO)[C@H]([C@H](O)[C@H](O)CNC(=O)c3cccc(F)c3)O2)c(=O)c1=O [Compound 234, (2R,4S,5R,6R)-2-((6-((3,4-dioxo-2-((2-(2-(prop-2-yn-1-yloxy)ethoxy)ethyl)amino)cyclobut-1-en-1-yl)amino)hexyl)oxy)-6-((1R,2R)-3-(3-fluorobenzamido)-1,2-dihydroxypropyl)-4-hydroxy-5-(2-hydroxyacetamido)tetrahydro-2H-pyran-2-carboxylic acid]
3 | > 6.00 | > 6.00 | > 6.00 | C#CCCOc1ccc(CO[C@]2(C(=O)O)C[C@H](O)[C@@H](NC(=O)CO)[C@H]([C@H](O)[C@H](O)CNC(=O)Cc3ccc(Cl)c(O)c3)O2)cc1 [Compound 135, (2R,4S,5R,6R)-2-((4-(but-3-yn-1-yloxy)benzyl)oxy)-6-((1R,2R)-3-(2-(4-chloro-3-hydroxyphenyl)acetamido)-1,2-dihydroxypropyl)-4-hydroxy-5-(2-hydroxyacetamido)tetrahydro-2H-pyran-2-carboxylic acid]
4 | > 6.00 | > 6.00 | 5.00 to 6.00 | C#CCCCCCCO[C@]1(C(=O)O)C[C@H](O)[C@@H](NC(=O)CO)[C@H]([C@H](O)[C@H](O)CNC(=O)C(F)(F)c2ccccc2)O1 [Compound 42, (2R,4S,5R,6R)-6-((1R,2R)-3-(2,2-difluoro-2-phenylacetamido)-1,2-dihydroxypropyl)-4-hydroxy-5-(2-hydroxyacetamido)-2-(oct-7-yn-1-yloxy) tetrahydro-2H-pyran-2-carboxylic acid]
5 | 5.00 to 6.00 | 5.00 to 6.00 | 5.00 to 6.00 | CCCNC(=O)CCCCCCO[C@]1(C(=O)O)C[C@H](O)[C@@H](NC(=O)CO)[C@H]([C@H](O)[C@H](O)CNC(=O)Cc2cccc(O)c2)O1 [Compound 207, (2R,4S,5R,6R)-6-((1R,2R)-1,2-dihydroxy-3-(2-(3-hydroxyphenyl)acetamido)propyl)-4-hydroxy-5-(2-hydroxyacetamido)-2-((7-oxo-7-(propylamino)heptyl)oxy)tetrahydro-2H-pyran-2-carboxylic acid]
6 | > 6.00 | > 6.00 | > 6.00 | CC(=O)NCCOCCOCCOCCOCCNc1c(NCCCCCCO[C@]2(C(=O)O)C[C@H](O)[C@@H](NC(=O)CO)[C@H]([C@H](O)[C@H](O)CNC(=O)Cc3ccc(Cl)cc3)O2)c(=O)c1=O [Compound 240, (2R,4S,5R,6R)-6-((1R,2R)-3-(2-(4-chlorophenyl)acetamido)-1,2-dihydroxypropyl)-2-((6-((3,4-dioxo-2-((2-oxo-6,9,12,15-tetraoxa-3-azaheptadecan-17-yl)amino)cyclobut-1-en-1-yl)amino)hexyl)oxy)-4-hydroxy-5-(2-hydroxyacetamido) tetrahydro-2H-pyran-2-carboxylic acid]
7 | 5.00 to 6.00 | 5.00 to 6.00 | 5.00 to 6.00 | C#CCOCCCCCCO[C@]1(C(=O)O)C[C@H](O)[C@@H](NC(=O)NC2CC2)[C@H]([C@H](O)[C@H](O)CNC(=O)Cc2ccc(Cl)cc2)O1 [Compound 89, (2R,4S,5R,6R)-6-((1R,2R)-3-(2-(4-chlorophenyl)acetamido)-1,2-dihydroxypropyl)-5-(3-cyclopropylureido)-4-hydroxy-2-((6-(prop-2-yn-1-yloxy)hexyl)oxy)tetrahydro-2H-pyran-2-carboxylic acid]
